# From US8846653B2, “Delta-tocotrienol treatment and prevention of pancreatic cancer” (University of South Florida, priority 2006, dated 2014)
# How the values were obtained:
# Format in all cases: cell-based, human
# MiaPaCa-2 cells [1] = test: MTS assay of MiaPaCa2 cultures, single 50 μM dose; conditions: MiaPaCa2, 50 μM
# How it was run: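 This MTS viability assay used MiaPaCa2 cultures treated once with 50 μM compound or vehicle, with an untreated culture grown in parallel for comparison. Cells were maintained in DMEM supplemented with 10% FBS, 1% penicillin-streptomycin and 1% L-glutamine at 37° C. under 5% CO2 and humidity.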
# BXPC3 cells = test: MTT assay of BXPC3 cultures, single 50 μM dose; conditions: BXPC3, 50 μM; for MTT assay result, av-blank: average minus blank
# How it was run: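 Viability measured by MTT assay 48 or 120 hours after one 50 μM treatment with tocol-family compounds, geranylgeraniol, succinic acid or vehicle, with untreated cultures in parallel. BXPC3 cells grown in FBS-supplemented medium, 37° C, humidified 5% CO2.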
# MiaPaCa-2 cells [2] = test: MTT assay of MiaPaCa2 cultures, single 50 μM dose; design: rel amt (relative value set to the control): unit not given here; conditions: MiaPaCa2, 50 μM; for MTT assay result, av-blank: average minus blank; for MTT assay result, av: average of 7 runs
# How it was run: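 Viability measured by MTT 48 or 120 hours post-treatment, with a vehicle-only (ethanol-extracted olive oil) culture as control. MiaPaCa-2 cultures received one 50 μM exposure to a tocotrienol, tocopherol, tocopherol succinate, geranylgeraniol or succinic acid.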
smiles,measurement,setting,value
"O=C(O)CCC(=O)O [SA, succinic acid]",rel amt (relative value set to the control),MiaPaCa-2 cells [1]; 24 hours,105
same,"MTS assay result, run 1",MiaPaCa-2 cells [1]; 24 hours,0.24
same,"MTS assay result, run 2",MiaPaCa-2 cells [1]; 24 hours,0.248
same,"MTS assay result, run 3",MiaPaCa-2 cells [1]; 24 hours,0.25
same,"MTS assay result, run 4",MiaPaCa-2 cells [1]; 24 hours,0.245
same,"MTS assay result, run 5",MiaPaCa-2 cells [1]; 24 hours,0.236
same,"MTS assay result, run 6",MiaPaCa-2 cells [1]; 24 hours,0.219
same,"MTS assay result, run 7",MiaPaCa-2 cells [1]; 24 hours,0.214
same,"MTS assay result, run 8",MiaPaCa-2 cells [1]; 24 hours,0.204
same,"MTS assay result, run 9",MiaPaCa-2 cells [1]; 24 hours,0.232
same,rel amt (relative value set to the control),MiaPaCa-2 cells [1]; 48 hours,90
same,"MTS assay result, run 1",MiaPaCa-2 cells [1]; 48 hours,0.334
same,"MTS assay result, run 2",MiaPaCa-2 cells [1]; 48 hours,0.335
same,"MTS assay result, run 3",MiaPaCa-2 cells [1]; 48 hours,0.333
same,"MTS assay result, run 4",MiaPaCa-2 cells [1]; 48 hours,0.304
same,"MTS assay result, run 5",MiaPaCa-2 cells [1]; 48 hours,0.32
same,"MTS assay result, run 6",MiaPaCa-2 cells [1]; 48 hours,0.294
same,"MTS assay result, run 7",MiaPaCa-2 cells [1]; 48 hours,0.352
same,"MTS assay result, run 8",MiaPaCa-2 cells [1]; 48 hours,0.348
same,"MTS assay result, run 9",MiaPaCa-2 cells [1]; 48 hours,0.328
same,rel amt (relative value set to the control),MiaPaCa-2 cells [1]; 72 hours,114
same,"MTS assay result, run 1",MiaPaCa-2 cells [1]; 72 hours,0.596
same,"MTS assay result, run 2",MiaPaCa-2 cells [1]; 72 hours,0.547
same,"MTS assay result, run 3",MiaPaCa-2 cells [1]; 72 hours,0.566
same,"MTS assay result, run 4",MiaPaCa-2 cells [1]; 72 hours,0.515
same,"MTS assay result, run 5",MiaPaCa-2 cells [1]; 72 hours,0.544
same,"MTS assay result, run 6",MiaPaCa-2 cells [1]; 72 hours,0.44
same,"MTS assay result, run 7",MiaPaCa-2 cells [1]; 72 hours,0.397
same,"MTS assay result, run 8",MiaPaCa-2 cells [1]; 72 hours,0.427
same,"MTS assay result, run 9",MiaPaCa-2 cells [1]; 72 hours,0.504
same,rel amt (relative value set to the control),BXPC3 cells; 48 hours,95
same,"MTT assay result, av-blank",BXPC3 cells; 48 hours,0.218
same,"MTT assay result, av (average)","BXPC3 cells; 48 hours, average of 7 runs",0.267
same,"MTT assay result, run 1",BXPC3 cells; 48 hours,0.273
same,"MTT assay result, run 2",BXPC3 cells; 48 hours,0.28
same,"MTT assay result, run 3",BXPC3 cells; 48 hours,0.271
same,"MTT assay result, run 4",BXPC3 cells; 48 hours,0.271
same,"MTT assay result, run 5",BXPC3 cells; 48 hours,0.254
same,"MTT assay result, run 6",BXPC3 cells; 48 hours,0.263
same,"MTT assay result, run 7",BXPC3 cells; 48 hours,0.255
same,rel amt (relative value set to the control),BXPC3 cells; 120 hours (5 days),74
same,"MTT assay result, av-blank",BXPC3 cells; 120 hours (5 days),0.428
same,"MTT assay result, av","BXPC3 cells; 120 hours (5 days), average of 7 runs",0.483
same,"MTT assay result, run 1",BXPC3 cells; 120 hours (5 days),0.456
same,"MTT assay result, run 2",BXPC3 cells; 120 hours (5 days),0.471
same,"MTT assay result, run 3",BXPC3 cells; 120 hours (5 days),0.497
same,"MTT assay result, run 4",BXPC3 cells; 120 hours (5 days),0.487
same,"MTT assay result, run 5",BXPC3 cells; 120 hours (5 days),0.493
same,"MTT assay result, run 6",BXPC3 cells; 120 hours (5 days),0.48
same,"MTT assay result, run 7",BXPC3 cells; 120 hours (5 days),0.494
same,rel amt (relative value set to the control),MiaPaCa-2 cells [2]; 48 hours,74
same,"MTT assay result, av-blank",MiaPaCa-2 cells [2]; 48 hours,0.228
same,"MTT assay result, av",MiaPaCa-2 cells [2]; 48 hours,0.274
same,"MTT assay result, run 1",MiaPaCa-2 cells [2]; 48 hours,0.276
same,"MTT assay result, run 2",MiaPaCa-2 cells [2]; 48 hours,0.269
same,"MTT assay result, run 3",MiaPaCa-2 cells [2]; 48 hours,0.268
same,"MTT assay result, run 4",MiaPaCa-2 cells [2]; 48 hours,0.276
same,"MTT assay result, run 5",MiaPaCa-2 cells [2]; 48 hours,0.3
same,"MTT assay result, run 6",MiaPaCa-2 cells [2]; 48 hours,0.262
same,"MTT assay result, run 7",MiaPaCa-2 cells [2]; 48 hours,0.266
same,rel amt (relative value set to the control),MiaPaCa-2 cells [2]; 120 hours (5 days),80
same,"MTT assay result, av-blank",MiaPaCa-2 cells [2]; 120 hours (5 days),1.443
same,"MTT assay result, av",MiaPaCa-2 cells [2]; 120 hours (5 days),1.495
same,"MTT assay result, run 1",MiaPaCa-2 cells [2]; 120 hours (5 days),1.36
same,"MTT assay result, run 2",MiaPaCa-2 cells [2]; 120 hours (5 days),1.346
same,"MTT assay result, run 3",MiaPaCa-2 cells [2]; 120 hours (5 days),1.488
same,"MTT assay result, run 4",MiaPaCa-2 cells [2]; 120 hours (5 days),1.609
same,"MTT assay result, run 5",MiaPaCa-2 cells [2]; 120 hours (5 days),1.84
same,"MTT assay result, run 6",MiaPaCa-2 cells [2]; 120 hours (5 days),1.412
same,"MTT assay result, run 7",MiaPaCa-2 cells [2]; 120 hours (5 days),1.408
